EP0041644B1 (priority 1980, dated 1981)

Experiments:
L1210 Leukemia [1] = assay: L1210 Leukemia - Test 1 (survival of tumor-bearing mice); assay type: in vivo; settings: for Effect MST % T/C / MST Days: d. 1 only
Excerpt: This evaluation of the ammonium salt finds the drug to be active against L1210 (ip) leukemia when administered ip one day post-implant of 10^6 L1210 cells (maximum T/C was 164%). […] The vehicle for the ammonium salt was water.

L1210 Leukemia [2] = assay: L1210 Leukemia - Test 3 (vehicle comparison); assay type: in vivo, mice; settings: for Effect MST % T/C / MST Days: Day 1 only
B16 Melanoma [3] = assay: B16 Melanoma - Test 1 (ip tumor brei); assay type: in vivo, mice; settings: for Effect MST % T/C / MST Days: QD 1→9, vehicle H2O
B16 Melanoma [4] = assay: B16 Melanoma - Test 2 (ip tumor brei); assay type: in vivo, mice; settings: QD +9

In the case of `[NH2][Pt]1([NH2])[O]C(=O)C([O-])C(=O)[O]1.[NH4+]` [Example 1, 2-Hydroxymalonato diammine platinum (II), ammonium salt], the “Effect MST % T/C” value (L1210 Leukemia [1]; 10 mg/kg/day ip) is reported as 136 % T/C, the “MST Days” value (L1210 Leukemia [1]; 10 mg/kg/day ip) is reported as 9.5 days and the “Effect MST % T/C” value (L1210 Leukemia [1]; 20 mg/kg/day ip) is reported as 129 % T/C. For the same compound, the “MST Days” value (L1210 Leukemia [1]; 20 mg/kg/day ip) was 9.0 days, the “Effect MST % T/C” value (L1210 Leukemia [1]; 40 mg/kg/day ip) was 143 % T/C and the “MST Days” value (L1210 Leukemia [1]; 40 mg/kg/day ip) was 10.0 days. For the same compound, the “Effect MST % T/C” value (L1210 Leukemia [1]; 60 mg/kg/day ip) was 157 % T/C, the “MST Days” value (L1210 Leukemia [1]; 60 mg/kg/day ip) was 11.0 days and the “Effect MST % T/C” value (L1210 Leukemia [1]; 80 mg/kg/day ip) was 157 % T/C. The “MST Days” value (L1210 Leukemia [1]; 80 mg/kg/day ip) was 11.0 days, the “Effect MST % T/C” value (L1210 Leukemia [1]; 100 mg/kg/day ip) was 164 % T/C and the “MST Days” value (L1210 Leukemia [1]; 100 mg/kg/day ip) was 11.5 days. The “maximum T/C” value (L1210 Leukemia [1]; ip one day post-implant of 10^6 L1210 cells, vehicle water) was 164%, the “Effect MST % T/C” value (L1210 Leukemia [2]; 40 mg/kg ip, vehicle H2O) was 143 % T/C and the “MST Days” value (L1210 Leukemia [2]; 40 mg/kg ip, vehicle H2O) was 10.0 days. For the same compound, the “Effect MST % T/C” value (L1210 Leukemia [2]; 40 mg/kg ip, vehicle Saline) was 114 % T/C, the “MST Days” value (L1210 Leukemia [2]; 40 mg/kg ip, vehicle Saline) was 8.0 days and the “Effect MST % T/C” value (L1210 Leukemia [2]; 60 mg/kg ip, vehicle H2O) was 143 % T/C. The “MST Days” value (L1210 Leukemia [2]; 60 mg/kg ip, vehicle H2O) was 10.0 days, the “Effect MST % T/C” value (L1210 Leukemia [2]; 60 mg/kg ip, vehicle Saline) was 100 % T/C and the “MST Days” value (L1210 Leukemia [2]; 60 mg/kg ip, vehicle Saline) was 7.0 days. The “Effect MST % T/C” value (L1210 Leukemia [2]; 80 mg/kg ip, vehicle H2O) was 143 % T/C, the “MST Days” value (L1210 Leukemia [2]; 80 mg/kg ip, vehicle H2O) was 10.0 days and the “Effect MST % T/C” value (L1210 Leukemia [2]; 80 mg/kg ip, vehicle Saline) was 114 % T/C. The “MST Days” value (L1210 Leukemia [2]; 80 mg/kg ip, vehicle Saline) was 8.0 days, the “Effect MST % T/C” value (L1210 Leukemia [2]; 100 mg/kg ip, vehicle H2O) was 107 % T/C and the “MST Days” value (L1210 Leukemia [2]; 100 mg/kg ip, vehicle H2O) was 7.5 days. For the same compound, the “Effect MST % T/C” value (L1210 Leukemia [2]; 100 mg/kg ip, vehicle Saline) was 143 % T/C, the “MST Days” value (L1210 Leukemia [2]; 100 mg/kg ip, vehicle Saline) was 10.0 days and the “Maximum increase in median lifespan (T/C)” value (L1210 Leukemia [2]; single dose ip, saline and water as vehicles) was 143%. For the same compound, the “Effect MST % T/C” value (B16 Melanoma [3]; 4 mg/kg/day ip) was 192 % T/C, the “MST Days” value (B16 Melanoma [3]; 4 mg/kg/day ip) was 37.5 days and the “Effect MST % T/C” value (B16 Melanoma [3]; 8 mg/kg/day ip) was 190 % T/C. The “MST Days” value (B16 Melanoma [3]; 8 mg/kg/day ip) was 37.0 days, the “Effect MST % T/C” value (B16 Melanoma [3]; 16 mg/kg/day ip) was 121 % T/C and the “MST Days” value (B16 Melanoma [3]; 16 mg/kg/day ip) was 23,5 Days. For the same compound, the “Effect MST % T/C” value (B16 Melanoma [3]; 24 mg/kg/day ip) was 36 % T/C, the “MST Days” value (B16 Melanoma [3]; 24 mg/kg/day ip) was 7.0 days and the “Effect MST % T/C” value (B16 Melanoma [3]; 32 mg/kg/day ip) was 31 % T/C. The “MST Days” value (B16 Melanoma [3]; 32 mg/kg/day ip) was 6.0 days, the “maximum T/C” value (B16 Melanoma [3]; ip B16, ip QD 1→9) was 190% and the “Average Weight Change” value (B16 Melanoma [4]; 2 mg/kg/day ip) was -0.7 g. The “Effect MST % T/C” value (B16 Melanoma [4]; 2 mg/kg/day ip) was 153 % T/C, the “MST Days” value (B16 Melanoma [4]; 2 mg/kg/day ip) was 31.5 days and the “Average Weight Change” value (B16 Melanoma [4]; 4 mg/kg/day ip) was -2.0 g. The “Effect MST % T/C” value (B16 Melanoma [4]; 4 mg/kg/day ip) was 158 % T/C, the “MST Days” value (B16 Melanoma [4]; 4 mg/kg/day ip) was 32.5 days and the “Average Weight Change” value (B16 Melanoma [4]; 8 mg/kg/day ip) was -0.9 g. The “Effect MST % T/C” value (B16 Melanoma [4]; 8 mg/kg/day ip) was 180 % T/C, the “MST Days” value (B16 Melanoma [4]; 8 mg/kg/day ip) was 37.0 days and the “Average Weight Change” value (B16 Melanoma [4]; 16 mg/kg/day ip) was -1.3 g. For the same compound, the “Effect MST % T/C” value (B16 Melanoma [4]; 16 mg/kg/day ip) was 234 % T/C, the “MST Days” value (B16 Melanoma [4]; 16 mg/kg/day ip) was 48.0 days and the “Survivors Day 10 (60)” value (B16 Melanoma [4]; Day 10, 2 mg/kg/day ip) was 9/10. The “Survivors Day 10 (60)” value (B16 Melanoma [4]; Day 10, 4 mg/kg/day ip) was 9/10, the “Survivors Day 10 (60)” value (B16 Melanoma [4]; Day 10, 8 mg/kg/day ip) was 9/10 and the “Survivors Day 10 (60)” value (B16 Melanoma [4]; Day 10, 16 mg/kg/day ip) was 8/10. The “Survivors Day 10 (60)” value (B16 Melanoma [4]; Day 60 (figure in parentheses), 16 mg/kg/day ip) was 2, the “Water-solubility at room temperature” value was 10000 µg/mL and the “Solubility in H2O at 22-25°C” value (water) was 10000 µg/mL.
